Laboratory results as given in US20050137166A1, “Use of cooling agents to relieve mild ocular irritation and enhance comfort” (Alcon, Inc., priority 2003, published 2005).

Tests used:
[1] = test system: eyes of human patients; experiment: Creation of ocular discomfort after topical application to the eyes of human patients; format: in vivo
Experimental: (§1) Compositions containing the cooling agents WS-3 and WS-23 in the vehicle described in Example 1 were prepared. The compositions were evaluated relative to the ability to produce a cooling sensation when topically applied to the eyes of human patients. The compositions were also evaluated with respect to the creation of ocular discomfort.

[2] = test system: eyes of human patients; experiment: Cooling sensation of compositions topically applied to the eyes of human patients; format: in vivo; details: for ability to produce a cooling sensation: human patients
Experimental: as §1

[3] = test system: mouth; details: versus menthol; cited from earlier work
[4] = test system: skin; details: versus menthol; cited from earlier work
[5] = WS-3 at 2 ppm to 5 ppm in the vehicle of Example 1, topical ocular
[6] = ophthalmic composition, ocular cooling
[7] = WS-23 at 10 ppm to 20 ppm in the vehicle of Example 1, topical ocular

For `CCNC(=O)C1CC(C)CCC1C(C)C` (centres unmarked) [WS-3, Cyclohexanecarboxamide, N-ethyl-5-methyl-2-(1-methylethyl)], the “ocular discomfort / tolerability” value [1, 5] was “comfortable and well tolerated”, the “ability to produce a cooling sensation” value [2, 5] was “refreshing” and the optimal concentration [2, 6] was 1 to 5 PPM.
In the case of `CNC(=O)C(C)(C(C)C)C(C)C` [WS-23, N,2,3-Trimethyl-2-isopropylbutamide], the ocular discomfort [1, 7] is reported as “comfortable”, the “ability to produce a cooling sensation” value [2, 7] is reported as “produced a cooling effect” and the “concentration at which most effective” value [2, 6] is reported as 10 to 20 ppm.
For `CC1=C(N2CCCC2)C(=O)OC1` [4-methyl-3-(1-pyrrolididinyl)-2[5H]-furanone], the “cooling power relative to menthol, in the mouth” value [3] is listed as “thirty-five” and the “cooling power relative to menthol, on the skin” value [4] is listed as “over 500 times”.
